In the supplement of paper PMC10307832:

Assays:
Assay in all cases: relative viability (nuclei count vs DMSO), 5 days (fraction); higher = more cells survive
Dovitinib + Palbociclib = compound: CN1CCN(c2ccc3nc(-c4c(N)c5c(F)cccc5[nH]c4=O)[nH]c3c2)CC1 [Dovitinib] + CC(=O)c1c(C)c2cnc(Nc3ccc(N4CCNCC4)cn3)nc2n(C2CCCC2)c1=O [Palbociclib] (partner 0.5 µM)
How it was run: (§1)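 Relative viability divides the nuclei count in treated wells by that in vehicle wells. Lung cancer cell lines were seeded in 1536-well plates, dosed by pin tool the next day, and fixed and stained after 5 days in one step with final 0.05% Triton X-100, 1% formaldehyde and 1 ug/ml Hoechst. Dosing was a single drug or a fixed anchor-drug dose plus five library-drug doses (not always all listed) in √10 steps, and values are medians of duplicate plates imaged at 4×.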

Dovitinib + Luminespib = compound: CN1CCN(c2ccc3nc(-c4c(N)c5c(F)cccc5[nH]c4=O)[nH]c3c2)CC1 [Dovitinib] + CCNC(=O)c1noc(-c2cc(C(C)C)c(O)cc2O)c1-c1ccc(CN2CCOCC2)cc1 [Luminespib] (partner 0.01 µM)
How it was run: as §1

Dovitinib + OSI-027 = compound: CN1CCN(c2ccc3nc(-c4c(N)c5c(F)cccc5[nH]c4=O)[nH]c3c2)CC1 [Dovitinib] + COc1cccc2cc(-c3nc([C@H]4CC[C@H](C(=O)O)CC4)n4ncnc(N)c34)[nH]c12 [OSI-027] (partner 0.5 µM)
How it was run: as §1

Dovitinib + Pictilisib = compound: CN1CCN(c2ccc3nc(-c4c(N)c5c(F)cccc5[nH]c4=O)[nH]c3c2)CC1 [Dovitinib] + CS(=O)(=O)N1CCN(Cc2cc3nc(-c4cccc5[nH]ncc45)nc(N4CCOCC4)c3s2)CC1 [Pictilisib] (partner 1 µM)
How it was run: as §1

Cell Line | relative viability (Dovitinib + Palbociclib; first compound 0.02 µM) | relative viability (Dovitinib + Palbociclib; first compound 0.06325 µM) | relative viability (Dovitinib + Palbociclib; first compound 0.2 µM) | relative viability (Dovitinib + Palbociclib; first compound 0.6325 µM) | relative viability (Dovitinib + Palbociclib; first compound 2 µM) | relative viability (Dovitinib + Luminespib; first compound 0.02 µM) | relative viability (Dovitinib + Luminespib; first compound 0.06325 µM) | relative viability (Dovitinib + Luminespib; first compound 0.2 µM) | relative viability (Dovitinib + Luminespib; first compound 0.6325 µM) | relative viability (Dovitinib + Luminespib; first compound 2 µM) | relative viability (Dovitinib + OSI-027; first compound 0.02 µM) | relative viability (Dovitinib + OSI-027; first compound 0.06325 µM) | relative viability (Dovitinib + OSI-027; first compound 0.2 µM) | relative viability (Dovitinib + OSI-027; first compound 0.6325 µM) | relative viability (Dovitinib + OSI-027; first compound 2 µM) | relative viability (Dovitinib + Pictilisib; first compound 0.02 µM) | relative viability (Dovitinib + Pictilisib; first compound 0.06325 µM) | relative viability (Dovitinib + Pictilisib; first compound 0.2 µM) | relative viability (Dovitinib + Pictilisib; first compound 0.6325 µM) | relative viability (Dovitinib + Pictilisib; first compound 2 µM)
CAL-12T | 0.563 | 0.55 | 0.406 | 0.526 | 0.589 | 0.297 | 0.469 | 0.495 | 0.519 | 0.219 | 0.839 | 0.768 | 0.913 | 0.569 | 0.742 | 0.664 | 0.3 | 0.295 | 0.528 | 0.722
COR-L23 | 0.269 | 0.261 | 0.306 | 0.372 | 0.324 | 0.581 | 0.788 | 0.695 | 0.664 | 0.72 | 0.681 | 0.856 | 0.835 | 0.791 | 0.823 | 0.733 | 0.75 | 0.813 | 0.838 | 0.904
NCI-H1755 | 0.47 | 0.427 | 0.479 | 0.463 | 0.471 | 0.41 | 0.305 | 0.417 | 0.54 | 0.508 | 0.744 | 0.732 | 0.759 | 0.714 | 0.712 | 0.494 | 0.399 | 0.465 | 0.452 | 0.46
NCI-H1437 | 0.305 | 0.301 | 0.321 | 0.32 | 0.321 | 1.07 | 1.12 | 1.13 | 0.985 | 1.07 | 0.877 | 0.881 | 0.867 | 0.903 | 0.916 | 0.512 | 0.537 | 0.434 | 0.494 | 0.464
NCI-H2085 | 0.481 | 0.476 | 0.477 | 0.415 | 0.493 | 0.41 | 0.457 | 0.485 | 0.495 | 0.484 | 0.672 | 0.71 | 0.734 | 0.829 | 0.839 | 0.553 | 0.465 | 0.443 | 0.502 | 0.451
H3255 | 0.301 | 0.291 | 0.298 | 0.325 | 0.281 | 0.943 | 0.9 | 0.956 | 0.932 | 0.923 | 0.637 | 0.601 | 0.627 | 0.716 | 0.585 | 0.539 | 0.514 | 0.498 | 0.516 | 0.514
NCI-H650 | 0.321 | 0.333 | 0.359 | 0.317 | 0.357 | 0.798 | 0.667 | 0.808 | 0.744 | 0.788 | 0.503 | 0.515 | 0.538 | 0.521 | 0.565 | 0.867 | 0.789 | 0.931 | 0.758 | 1.01
